# Results from patent US9551706B2, “Density-based methods for separation of materials, monitoring of solid supported reactions and measuring densities of small liquid volumes and solids” (President and Fellows of Harvard College, priority 2007, dated 2017).
# pKd: −log10 of the molar value.
# Key:
# [1] = known value; cited from earlier work
# [2] = Capillary electrophoresis (Job's plot) binding affinity of the DT3 ligand for Gd^3+ in methanol; details: 25° C., 1:1 complex with Gd^3+, read-out: dissociation constant (Kd)
# Protocol: FIG. 11 is a plot of peak area of the Gd(DT3) by capillary electrophoresis vs. mole fraction of Gd^3+ and illustrates the Job's plot assay for determination of the stoichiometry of and dissociation constant for Gd(DT3) in methanol.
# The binding affinity of the DT3 ligand for Gd^3+ and the stoichiometry of the Gd(DT3) complex was determined using capillary electrophoresis (CE). […] See, FIG. 11. […] Gadolinium(III) chloride (the source of Gd^3+ for these experiments) is insoluble in non-polar organic solvents; the dissociation constants was not measured in these solvents.
# [3] = Magnetic susceptibility from levitation of a glass bead in solutions of the paramagnetic salt; assay type: physicochemical; details: four solutions 100-175 mM in 9:1 chlorobenzene-toluene, 23° C.
# Protocol: The average magnetic susceptibility for solid Gd(DT3) (in the centimeter-gram-second system of units, cgs (cm^3/mol)) was determined by measuring the magnetic susceptibilities for solutions of Gd(DT3) (χl^SI, International System of Units), and by inputting these values into Equation (3). χl^SI=4πχl^CGS[Gd^3+] (3)
# Magnetic susceptibility values were measured for solutions of Gd(DT3) (100-175 mM) in 9:1 chlorobenzene-toluene (23° C.) by levitating a glass bead (ρp=1.0900 g/cm^3) in these solutions (FIG. 12A). This mixture of solvents is adequate because it has a density (ρl=1.082±0.003 g/cm^3) slightly below the density of the glass bead that was used. The vertical position of the glass bead (z) in each solution was determined using a ruler, and the densities of the solutions were measured by weighing 1 mL samples. […]
# The remaining variable in Equation (1) that required measuring before the calculation of χl^SI could be completed was the strength of the magnetic field at the surface of the magnet (Bmax). […] This value was determined using solutions of GdCl3 (70-100 mM) with known magnetic susceptibilities and by levitating a glass bead (ρp=1.0200 g/cm^3) in these solutions. […]
# The calibrated value for Bmax was used to calculate the χl^SI values for the solutions of Gd(DT3) (using Equation (1) and values for ρl and z that were measured experimentally). […]
# [4] = Label-free detection of streptavidin binding to solid-supported biotin by magnetic levitation
# Text: Beads of biotin-labeled PEGA polymer swell in water (unlike polystyrene-based solid supports), have a loading capacity of 0.2 mmol amine/g PEGA, and pores of sufficient size for ˜70 kDa proteins to access the biotin on the interior of the polymer. The sensitivity of detection depends directly on the loading capacity (i.e., surface density of reacting groups) of the beads and the molecular weight of the bound molecules. In initial experiments, precipitation was observed after adding proteins to the aqueous Gd^3+ solution, so a Gd3+·DTPA chelate was used instead.
# Binding of streptavidin to solid-supported biotin was detected by incubating ˜20 water saturated polymer beads with 20 μL of 0.19-mM protein dissolved in 40-mM potassium phosphate buffer (pH 7.0). After 15 min the solution, was diluted to 1.5 mL to suspend the beads using 210-mM Gd^3+·DTPA in 40-mM potassium phosphate buffer (pH 7.5), and then added ˜20 more biotin-labeled polymer beads. The solution was mixed gently for 5 s with a spatula, and then the cuvette was inserted along the axis of the magnets. After approximately 30 min, all of the beads had clustered into two separate bands (FIG. 19A), the upper one levitating at the same height as the unlabeled PEGA polymer. […]
compound,measurement,setting,value
[Cl][Mn][Cl] [MnCl2],molar magnetic susceptibility of the solid salt,[1],14350×10^−6 cm^3/mol
diethylenetriamine triacetic acid tetradecane [DT3 ligand],pKd,[2],6.52
gadolinium(III) diethylenetriamine triacetic acid tetradecane [Gd(DT3)],average molar magnetic susceptibility χl^CGS,[3],0.036±0.003 cm^3/mol
streptavidin: a 53-kDa protein,binding to solid-supported biotin (levitation band),"[4]; biotin-labeled PEGA beads, 210-mM Gd^3+·DTPA, 40-mM potassium phosphate buffer",binding of streptavidin to the solid-supported biotin
same,non-specific adsorption to unlabeled PEGA polymer (control),[4]; unlabeled PEGA polymer beads,no obvious non-specific adsorption
